Experimental data published in publication PMC7720687 (ERJ Open Research, 2020).

Key:
[1] = target: T1, epithelial sodium channel (ENaC) (Mus musculus, UniProt Q61180+Q9WU38+Q9WU39); assay: Ussing chamber, amiloride-sensitive short-circuit current in M1 monolayers; type: cell-based
T1 sequence (Q61180 1-699): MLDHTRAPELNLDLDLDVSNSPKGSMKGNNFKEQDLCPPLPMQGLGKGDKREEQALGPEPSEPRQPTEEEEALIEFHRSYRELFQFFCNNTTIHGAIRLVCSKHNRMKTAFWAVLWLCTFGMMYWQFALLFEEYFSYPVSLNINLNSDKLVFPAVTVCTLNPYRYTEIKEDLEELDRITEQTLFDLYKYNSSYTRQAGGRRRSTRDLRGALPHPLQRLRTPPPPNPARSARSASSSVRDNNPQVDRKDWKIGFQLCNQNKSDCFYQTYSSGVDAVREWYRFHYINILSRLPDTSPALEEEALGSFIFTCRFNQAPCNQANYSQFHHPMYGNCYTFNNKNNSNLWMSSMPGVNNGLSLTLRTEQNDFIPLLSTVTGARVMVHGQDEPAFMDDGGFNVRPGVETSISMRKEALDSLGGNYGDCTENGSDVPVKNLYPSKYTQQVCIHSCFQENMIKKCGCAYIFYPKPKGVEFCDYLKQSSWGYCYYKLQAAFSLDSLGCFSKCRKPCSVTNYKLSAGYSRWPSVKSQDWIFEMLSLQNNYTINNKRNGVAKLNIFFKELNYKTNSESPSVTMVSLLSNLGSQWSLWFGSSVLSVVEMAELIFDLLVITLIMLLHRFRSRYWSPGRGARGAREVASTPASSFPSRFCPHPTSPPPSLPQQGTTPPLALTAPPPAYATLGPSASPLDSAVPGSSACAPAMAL
T1 sequence (Q9WU38 1-638): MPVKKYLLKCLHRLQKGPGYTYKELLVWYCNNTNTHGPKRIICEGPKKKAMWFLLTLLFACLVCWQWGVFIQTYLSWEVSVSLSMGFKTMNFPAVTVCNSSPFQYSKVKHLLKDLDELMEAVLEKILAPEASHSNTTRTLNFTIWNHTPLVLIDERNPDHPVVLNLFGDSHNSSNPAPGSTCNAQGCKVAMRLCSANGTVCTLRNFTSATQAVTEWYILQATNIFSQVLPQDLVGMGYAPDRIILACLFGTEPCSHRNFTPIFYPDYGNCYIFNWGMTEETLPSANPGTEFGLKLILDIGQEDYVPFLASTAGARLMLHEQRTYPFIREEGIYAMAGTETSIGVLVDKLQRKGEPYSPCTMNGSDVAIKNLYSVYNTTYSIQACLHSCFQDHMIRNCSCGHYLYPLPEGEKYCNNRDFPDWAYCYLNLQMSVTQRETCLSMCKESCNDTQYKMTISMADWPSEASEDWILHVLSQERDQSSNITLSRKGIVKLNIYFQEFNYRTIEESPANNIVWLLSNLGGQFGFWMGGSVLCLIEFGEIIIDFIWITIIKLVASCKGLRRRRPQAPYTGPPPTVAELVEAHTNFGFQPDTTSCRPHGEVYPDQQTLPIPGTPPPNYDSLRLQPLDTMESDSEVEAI
T1 sequence (Q9WU39 1-655): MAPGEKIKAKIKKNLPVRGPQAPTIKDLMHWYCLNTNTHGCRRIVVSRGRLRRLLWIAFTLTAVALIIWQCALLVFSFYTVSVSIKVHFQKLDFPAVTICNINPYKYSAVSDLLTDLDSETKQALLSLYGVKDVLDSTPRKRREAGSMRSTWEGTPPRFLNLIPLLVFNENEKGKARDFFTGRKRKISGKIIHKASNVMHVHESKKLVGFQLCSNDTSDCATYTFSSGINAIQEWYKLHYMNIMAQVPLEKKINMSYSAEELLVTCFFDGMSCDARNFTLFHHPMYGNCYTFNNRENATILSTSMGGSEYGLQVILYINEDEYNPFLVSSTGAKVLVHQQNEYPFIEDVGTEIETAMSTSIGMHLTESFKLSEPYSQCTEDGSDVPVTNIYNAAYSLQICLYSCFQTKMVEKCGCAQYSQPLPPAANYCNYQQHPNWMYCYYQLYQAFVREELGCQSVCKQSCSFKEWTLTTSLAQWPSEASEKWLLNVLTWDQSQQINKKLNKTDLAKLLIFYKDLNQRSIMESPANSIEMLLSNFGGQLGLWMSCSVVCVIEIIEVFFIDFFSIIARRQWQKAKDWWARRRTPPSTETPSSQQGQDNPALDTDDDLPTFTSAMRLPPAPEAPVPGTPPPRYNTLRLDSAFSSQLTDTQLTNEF

[2] = target: T2, epithelial sodium channel (ENaC) (Homo sapiens, UniProt P37088+P51168+P51170); assay: Ussing chamber, amiloride-sensitive short-circuit current in NCI-H441 monolayers; type: cell-based
T2 sequence (P37088 1-669): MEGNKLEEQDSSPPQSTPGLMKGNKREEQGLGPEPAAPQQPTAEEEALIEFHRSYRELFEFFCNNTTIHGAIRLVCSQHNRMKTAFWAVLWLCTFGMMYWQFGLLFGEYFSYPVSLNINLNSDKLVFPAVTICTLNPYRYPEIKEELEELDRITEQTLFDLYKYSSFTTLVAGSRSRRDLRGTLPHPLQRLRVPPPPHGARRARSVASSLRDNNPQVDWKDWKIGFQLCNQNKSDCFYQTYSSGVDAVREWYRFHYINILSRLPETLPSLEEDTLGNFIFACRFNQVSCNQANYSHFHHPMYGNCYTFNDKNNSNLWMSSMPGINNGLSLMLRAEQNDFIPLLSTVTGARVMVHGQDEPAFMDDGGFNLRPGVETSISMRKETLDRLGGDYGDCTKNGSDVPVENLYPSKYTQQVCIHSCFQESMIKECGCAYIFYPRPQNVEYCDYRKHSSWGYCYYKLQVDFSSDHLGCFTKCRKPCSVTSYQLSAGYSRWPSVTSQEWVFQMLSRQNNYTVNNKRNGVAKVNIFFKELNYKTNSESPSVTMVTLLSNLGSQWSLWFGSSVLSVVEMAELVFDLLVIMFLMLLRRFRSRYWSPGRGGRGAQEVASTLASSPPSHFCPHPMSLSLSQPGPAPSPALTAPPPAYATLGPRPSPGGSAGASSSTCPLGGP
T2 sequence (P51168 1-640): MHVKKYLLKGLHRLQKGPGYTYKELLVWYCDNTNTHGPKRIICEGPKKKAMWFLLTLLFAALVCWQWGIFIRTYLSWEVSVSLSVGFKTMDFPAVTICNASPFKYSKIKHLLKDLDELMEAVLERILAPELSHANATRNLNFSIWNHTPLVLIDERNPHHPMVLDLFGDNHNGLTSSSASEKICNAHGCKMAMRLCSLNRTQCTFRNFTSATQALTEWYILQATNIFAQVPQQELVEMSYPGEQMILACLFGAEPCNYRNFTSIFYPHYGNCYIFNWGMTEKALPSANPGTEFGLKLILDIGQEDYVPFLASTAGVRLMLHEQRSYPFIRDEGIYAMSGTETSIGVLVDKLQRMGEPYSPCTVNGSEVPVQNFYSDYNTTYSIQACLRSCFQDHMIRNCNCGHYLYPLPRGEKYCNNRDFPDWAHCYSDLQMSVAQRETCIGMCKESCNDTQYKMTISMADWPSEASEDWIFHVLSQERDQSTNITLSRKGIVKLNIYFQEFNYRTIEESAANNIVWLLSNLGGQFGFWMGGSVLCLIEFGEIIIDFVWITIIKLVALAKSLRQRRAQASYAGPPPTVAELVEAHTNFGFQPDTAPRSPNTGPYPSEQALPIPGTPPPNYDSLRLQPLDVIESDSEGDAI
T2 sequence (P51170 1-649): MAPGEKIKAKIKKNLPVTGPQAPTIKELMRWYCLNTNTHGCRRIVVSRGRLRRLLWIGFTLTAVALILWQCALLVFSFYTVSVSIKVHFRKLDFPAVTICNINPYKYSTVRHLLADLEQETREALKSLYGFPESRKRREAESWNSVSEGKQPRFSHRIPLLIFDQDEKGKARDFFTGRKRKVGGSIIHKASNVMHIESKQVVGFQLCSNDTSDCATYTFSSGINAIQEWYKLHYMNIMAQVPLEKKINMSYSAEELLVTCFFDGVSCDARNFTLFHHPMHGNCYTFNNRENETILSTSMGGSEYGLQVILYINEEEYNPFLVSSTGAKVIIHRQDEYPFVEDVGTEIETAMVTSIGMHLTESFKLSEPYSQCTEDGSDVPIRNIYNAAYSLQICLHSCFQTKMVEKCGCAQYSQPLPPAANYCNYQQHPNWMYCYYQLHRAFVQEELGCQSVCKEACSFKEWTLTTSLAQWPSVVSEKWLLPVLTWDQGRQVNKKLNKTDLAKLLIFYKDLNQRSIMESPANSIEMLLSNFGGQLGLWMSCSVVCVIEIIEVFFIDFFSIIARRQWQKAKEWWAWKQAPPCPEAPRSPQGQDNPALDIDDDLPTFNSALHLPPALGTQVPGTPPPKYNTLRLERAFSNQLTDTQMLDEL

- IC50 [1]: 3 nM
- IC50 [2]: 8 nM
Substance: BI 1265162
